A short description of data set [1]: Toxicity in NOD-SCID mouse xenografted with human MOLM16 cells assessed as pathological changes in liver at 30 mg/kg, ip administered once daily for 2 weeks by H and E staining based analysis. The data set is classed as organism-based. The settings on record: in vivo, 336 h. A general note: In xenograft studies the graft and the host belong to different species.

Data set [2] concerns the target T1, Protein cereblon/CREB-binding protein (Homo sapiens) (UniProt Q92793+Q96SW2). The data set can be described thus: Binding affinity to biotinylated CRBN (40 to 442 residues) (unknown origin)/His6-fused human CBP bromodomain (R1081 to G1197 residues) assessed as ternary complex formation incubated for 1.5 hrs by Alphascreen assay. The data set is classed as protein assay. A general note: In Alpha technology, singlet oxygen from a donor bead excites a nearby acceptor bead.

Data set [3] can be described thus: Cytotoxicity against human HL7702 cells assessed as inhibition of cell growth incubated for 72 hrs by celltiter glo luminescence analysis. The data set is classed as toxicity, cell-based. The settings on record: HL7702 (L02) cells. For orientation: Cellular ATP, detected with luciferase, serves as a proxy for viable cell number.
Data set [4] in a line: Toxicity in NOD-SCID mouse xenografted with human MOLM16 cells assessed as pathological changes in kidney at 30 mg/kg, ip administered once daily for 2 weeks by H and E staining based analysis. The settings on record: in vivo, 336 h. The data set is classed as organism-based.
Data set [5] has as its target T1, Protein cereblon/CREB-binding protein (Homo sapiens). The data set can be described thus: PROTAC activity at CRBN/CBP in human MOLM16 cells assessed as reduction in CBP protein level at 500 nM measured after 18 hrs by Western blot analysis. The data set is classed as cell-based.
Data set [6] deals with T2, Protein cereblon/Histone acetyltransferase p300 (Homo sapiens) (UniProt Q09472+Q96SW2). The data set can be described thus: PROTAC activity at CRBN/p300 in human MOLM16 cells assessed as induction of p300 degradation at 333 nM incubated for 24 hrs by Western blot analysis relative to control. The data set is classed as cell-based.
Another data set relates to Mus musculus. The data set can be described thus: In vivo PROTAC activity at CRBN/p300 in NOD-SCID mouse xenografted with human MOLM16 cells assessed as reduction in p300 level in tumor at 30 mg/kg, ip administered once daily for 2 weeks and measured 1 day post last dose by Western blot analysis. The data set is classed as functional, organism-based. The settings on record: time 15.0 day.

Data set [7] addresses T2, Protein cereblon/Histone acetyltransferase p300 (Homo sapiens). The data set can be described thus: Binding affinity to biotinylated CRBN (40 to 442 residues) (unknown origin)/His6-fused human p300 bromodomain (A1040 to G1161 residues) assessed as ternary complex formation incubated for 1.5 hrs by Alphascreen assay. The data set is classed as protein assay.
The target is the same in data set [8]. The data set can be described thus: PROTAC activity at CRBN/p300 in human MOLM16 cells assessed as induction of p300 degradation at 500 nM by Western blot analysis. The settings on record: time 0-24 hrs, TDE = time-dependent effect. The data set is classed as cell-based.
Data set [9] has as its target T1, Protein cereblon/CREB-binding protein (Homo sapiens). The data set can be described thus: In vivo PROTAC activity at CRBN/CBP in NOD-SCID mouse xenografted with human MOLM16 cells assessed as reduction in CBP level in tumor at 30 mg/kg, ip administered once daily for 2 weeks and measured 1 day post last dose by Western blot analysis. The settings on record: time 15.0 day. It is filed as functional, organism-based.

Data set [10] is described as follows: Antiproliferative activity against human MOLM16 cells assessed as inhibition of cell growth incubated for 72 hrs by celltiter glo luminescence analysis. The data set is classed as functional, cell-based, MOLM-16. The settings on record: MOLM16, 72 h.
Data set [11] concerns the target T3, CREB-binding protein (Homo sapiens, UniProt Q92793). The data set can be described thus: Inhibition of C-terminal biotinylated tetra-acetylated histone peptide H4 binding to His6-fused human CBP bromodomain (R1081 to G1197 residues) incubated for 1 hrs by HTRF assay.
The target in data set [12] is T2, Protein cereblon/Histone acetyltransferase p300 (Homo sapiens). The data set can be described thus: PROTAC activity at CRBN/p300 in human MOLM16 cells assessed as reduction in p300 protein level at 500 nM measured after 18 hrs by Western blot analysis. The data set is classed as cell-based.
Data set [13] addresses T1, Protein cereblon/CREB-binding protein (Homo sapiens). The data set can be described thus: PROTAC activity at CRBN/CBP in human MOLM16 cells assessed as induction of CBP degradation at 333 nM incubated for 24 hrs by Western blot analysis relative to control. It is filed as cell-based.
A short description of data set [14]: Toxicity in NOD-SCID mouse xenografted with human MOLM16 cells assessed as pathological changes in heart at 30 mg/kg, ip administered once daily for 2 weeks by H and E staining based analysis. It is filed as organism-based. The settings on record: in vivo, 336 h.
The subject of data set [15] is MV4-11. The data set can be described thus: Antiproliferative activity against human MV4-11 cells assessed as inhibition of cell growth incubated for 120 hrs by celltiter glo luminescence analysis. The settings on record: MV4-11, 120 h. It is filed as functional, cell-based.
The target in data set [16] is T1, Protein cereblon/CREB-binding protein (Homo sapiens). The data set can be described thus: PROTAC activity at CRBN/CBP in human MOLM16 cells assessed as reduction in CBP protein level at 500 nM pretreated with MG-132 for 2 hrs followed by compound treatment and measured after 18 hrs by Western blot analysis. It is filed as cell-based.
Data set [17] addresses T2, Protein cereblon/Histone acetyltransferase p300 (Homo sapiens). The data set can be described thus: PROTAC activity at CRBN/p300 in human MOLM16 cells assessed as reduction in p300 protein level at 500 nM pretreated with pomalidomide for 2 hrs followed by compound treatment and measured after 18 hrs by Western blot analysis. The data set is classed as cell-based.
The target of data set [18] is T1, Protein cereblon/CREB-binding protein (Homo sapiens). The data set can be described thus: PROTAC activity at CRBN/CBP in human MOLM16 cells assessed as reduction in CBP protein level at 500 nM pretreated with pomalidomide for 2 hrs followed by compound treatment and measured after 18 hrs by Western blot analysis. The data set is classed as cell-based.
A short description of data set [19]: Antitumor activity against human MOLM16 cells xenografted in NOD-SCID mouse assessed as tumor growth inhibition at 30 mg/kg, ip administered once daily for 2 weeks and measured every other day by caliper method relative to control. The settings on record: MOLM16, 336 h, read-out: TGI. The data set is classed as functional, MOLM-16.
The next data set addresses Protein cereblon (Homo sapiens, UniProt Q96SW2). The data set can be described thus: Inhibition of biotinylated thalidomide binding to CRBN (40 to 442 residues) (unknown origin) incubated for 1 hrs by HTRF assay.
The target in data set [20] is T1, Protein cereblon/CREB-binding protein (Homo sapiens). The data set can be described thus: PROTAC activity at CRBN/CBP in human MOLM16 cells assessed as induction of CBP degradation at 500 nM by Western blot analysis. The settings on record: time 0-24 hrs, TDE = time-dependent effect. It is filed as cell-based.
The target in data set [21] is T2, Protein cereblon/Histone acetyltransferase p300 (Homo sapiens). The data set can be described thus: PROTAC activity at CRBN/p300 in human MOLM16 cells assessed as induction of p300 degradation incubated for 24 hrs by Western blot analysis. It is filed as cell-based. The settings on record: dose 0-1000 nM.
The target is the same in data set [22]. The data set can be described thus: PROTAC activity at CRBN/p300 in human MOLM16 cells assessed as reduction in p300 protein level at 500 nM pretreated with MG-132 for 2 hrs followed by compound treatment and measured after 18 hrs by Western blot analysis. It is filed as cell-based.
Data set [23] in a line: Toxicity in NOD-SCID mouse xenografted with human MOLM16 cells assessed as pathological changes in lung at 30 mg/kg, ip administered once daily for 2 weeks by H and E staining based analysis. The settings on record: in vivo, 336 h. The data set is classed as organism-based.
In data set [24] the target is T1, Protein cereblon/CREB-binding protein (Homo sapiens). The data set can be described thus: PROTAC activity at CRBN/CBP in human MOLM16 cells assessed as induction of CBP degradation incubated for 24 hrs by Western blot analysis. It is filed as cell-based. The settings on record: dose 0-1000 nM.
In data set [25] the target is T4, Histone acetyltransferase p300 (Homo sapiens, UniProt Q09472). The data set can be described thus: Inhibition of C-terminal biotinylated tetra-acetylated histone peptide H4 binding to His6-fused human p300 bromodomain (A1040 to G1161 residues) incubated for 1 hrs by HTRF assay.
Data set [26] in a line: Toxicity in NOD-SCID mouse xenografted with human MOLM16 cells assessed as pathological changes in spleen at 30 mg/kg, ip administered once daily for 2 weeks by H and E staining based analysis. The settings on record: in vivo, 336 h. It is filed as organism-based.
Data set [27] has as its system MV4-11. The data set can be described thus: Potency index, ratio of Y08207 IC50 to test compound IC50 for antiproliferative activity against human MV4-11 cells assessed as inhibition of cell growth incubated for 120 hrs by celltiter glo luminescence analysis. It is filed as functional.
A further data set deals with KG-1. The data set can be described thus: Antiproliferative activity against human KG-1 cells assessed as inhibition of cell growth incubated for 72 hrs by celltiter glo luminescence analysis. The data set is classed as functional, cell-based. The settings on record: KG-1, 72 h.
A short description of data set [28]: Toxicity in NOD-SCID mouse xenografted with human MOLM16 cells assessed as reduction in body weight at 30 mg/kg, ip administered once daily for 2 weeks. The data set is classed as organism-based. The settings on record: in vivo, 336 h.
In data set [29] the target is T4, Histone acetyltransferase p300. The data set can be described thus: Inhibition of p300 (unknown origin) using histone H3 (1 to 21 residues) as substrate preincubated for 15 mins followed by substrate and [3H]Ac-CoA addition and measured after 60 mins by liquid scintillation counting analysis.
Data set [30] has as its target T3, CREB-binding protein. The data set can be described thus: Inhibition of CBP (unknown origin) using histone H3 (1 to 21 residues) as substrate preincubated for 15 mins followed by substrate and [3H]Ac-CoA addition and measured after 60 mins by liquid scintillation counting analysis.

Molecules are shown by their SMILES. pIC50: −log10 of the molar value. Calls of active or inactive are those of the source. The calls are words filed in the database; no cut-off is given here.

A word on the IC50: it is the point on the concentration scale where inhibition reaches its midpoint. For orientation: pIC50 means −log10 of the IC50, conventionally taken in molar units.

On to `CC(=O)c1cc(C(=O)Nc2cc(CO)cc(-c3cnn(C)c3)c2F)c2cc(OCC(=O)NCCCCNc3cccc4c3C(=O)N(C3CCC(=O)NC3=O)C4=O)ccn12` (stereo not drawn), for which the Activity entry in data set [1] is “Non-Toxic”; in data set [4], “Non-Toxic”; in [6], 100%; in data set [8] it was “Tde”; in data set [13], 100%; in [14] it was “Non-Toxic”. Further, the Activity result in [20] is “Tde”; in [21] it was “Dose-Dependent Effect”; in data set [23], “Non-Toxic”; in data set [24], “Dose-Dependent Effect”; in data set [26], “Non-Toxic”; in [28], “Non-Toxic”. Also, the result (in data set [2]; in [5]; in the data set with Mus musculus; in data set [7]; in [9]; in [12]) was Active. Besides, the IC50 at 72 h in data set [3] is greater than 100000 nM. Moreover, the pIC50 was 8.15 in data set [10]; 7.68 on CREB-binding protein [11]; 7.36 in the data set on MV4-11 [15]; 6.74 at Protein cereblon; 7.52 in data set [25]; 6.24 in the data set on KG-1. In addition, the result in data set [16], in [17], in data set [18] and in data set [22] was inactive. For the same molecule, in [19], the inhibition in vivo at 30 mg/kg amounted to 60%. Also, the “Ratio IC50” value in the data set with MV4-11 [27] was found to be 140.
Turning to `CNC(=O)Nc1ccc2c(c1)CC[C@@]21OC(=O)N(CC(=O)N2Cc3cc(F)ccc3OC[C@H]2C2CC2)C1=O`, the results for the pIC50 (in data set [29]; on CREB-binding protein [30]) were 9.30 and 7.96, respectively.

The values are drawn from ChEMBL document CHEMBL5512685, “Discovery of a Promising CBP/p300 Degrader XYD129 for the Treatment of Acute Myeloid Leukemia” (J Med Chem, 2024).
